Experimental data from patent US9376420B2 (YUHAN CORPORATION, priority 2012, dated 2016).

Biological target: T1, human LXRβ (Homo sapiens, UniProt P55055)
T1 construct: expressed in transfected cells; host or cells: HEK293 cells (ATCC CRL-1573), transient transfection with pFA-hLXRβ/GAL4 and pUAS
T1 sequence (P55055 222-460 limits assumed): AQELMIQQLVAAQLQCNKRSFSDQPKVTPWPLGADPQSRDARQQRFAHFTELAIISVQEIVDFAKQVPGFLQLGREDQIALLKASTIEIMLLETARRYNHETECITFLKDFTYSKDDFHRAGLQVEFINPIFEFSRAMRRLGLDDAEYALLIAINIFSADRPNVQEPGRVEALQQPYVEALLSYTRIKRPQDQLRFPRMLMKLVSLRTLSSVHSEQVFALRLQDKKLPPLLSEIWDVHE
Experiment: Assay for Transcriptional Activity of LXRβ (GAL4-hLXRβ LBD luciferase reporter, transient transfection)
Type: cell-based
Conditions: HEK293 cells transfected with pFA-hLXRβ/GAL4 and pUAS, 24 hours; for Emax: fold value in comparison with the control (DMSO-treated group); for EC50: increase of transcriptional activity of LXRβ, average of three independent tests
Method in brief: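 EC50 values, averaged over three independent runs, come from a four-parameter fit of 9-point half-log curves spanning 0.01–50 μM. Luciferase output was read in lysed HEK293 cells 24 h after dosing at 37 °C, following transient transfection with a GAL4-human LXRβ LBD fusion plus GAL4-responsive reporter.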

Structure (SMILES)	Emax	EC50
O=S(=O)(C1CC1)N1CC=C(c2cccc(N3N=C(C(O)(C(F)(F)F)C(F)(F)F)CC3c3ccccc3Cl)c2)CC1 (stereo not drawn) [Example 438, 5-(2-chloro-phenyl)-1-[3-(1-cyclopropanesulfonyl-1,2,3,6-tetrahydropyridin-4-yl)-phenyl]-3-[di-(trifluoromethyl)-hydroxy-methyl]-4,5-dihydro-1H-pyrazole]	6 fold	1930 nM
COc1ccc(-c2ccc(C3CC(C(O)(C(F)(F)F)C(F)(F)F)=NN3c3ccc(F)cc3F)cc2)cn1 (stereo not drawn) [Example 370, 1-(2,4-difluoro-phenyl)-5-(4-(6-methoxy-pyridin-3-yl)-phenyl)-3-[di-(trifluoromethyl)-hydroxy-methyl]-4,5-dihydro-1H-pyrazole]	36 fold	821 nM
CS(=O)(=O)N1CCN(c2ccc(C3CC(C(O)(C(F)(F)F)C(F)(F)F)=NN3c3ccccc3Cl)cn2)CC1 (stereo not drawn) [Example 360, 1-(2-chloro-phenyl)-5-[6-(4-methanesulfonyl-piperazin-1-yl)-pyridin-3-yl]-3-[di-(trifluoromethyl)-hydroxy-methyl]-4,5-dihydro-1H-pyrazole]	45 fold	10200 nM
CS(=O)(=O)N1CCCN(c2ccc(C3CC(C(O)(C(F)(F)F)C(F)(F)F)=NN3c3ccccc3Cl)cc2)CC1 (stereo not drawn) [Example 322, 1-(2-chloro-phenyl)-5-[4-(4-methanesulfonyl-homopiperazin-1-yl)-phenyl]-3-[di-(trifluoromethyl)-hydroxy-methyl]-4,5-dihydro-1H-pyrazole]	64 fold	778 nM
CC(C)(C)OC(=O)N1CC=C(c2ccc(C3CC(C(O)(C(F)(F)F)C(F)(F)F)=NN3c3ccc(F)cc3F)cc2)CC1 (stereo not drawn) [Example 398, 1-(2,4-difluoro-phenyl)-5-[4-(1-BOC-1,2,3,6-tetrahydropyridin-4-yl)-phenyl]-3-[di-(trifluoromethyl)-hydroxy-methyl]-4,5-dihydro-1H-pyrazole]	12 fold	1810 nM
O=S(=O)(C1CCCC1)N1CC=C(c2ccc(C3CC(C(O)(C(F)(F)F)C(F)(F)F)=NN3c3ccccc3Cl)cc2)CC1 (stereo not drawn) [Example 306, 1-(2-chloro-phenyl)-5-[4-(1-cyclopentanesulfonyl-1,2,3,6-tetrahydropyridin-4-yl)-phenyl]-3-[di-(trifluoromethyl)-hydroxy-methyl]-4,5-dihydro-1H-pyrazole]	59 fold	1250 nM
CS(=O)(=O)c1ccc(-c2cccc(C3CC(C(F)(F)C(F)(F)F)=NN3Cc3ccccc3Cl)c2)cc1 (stereo not drawn) [Example 54, 1-(2-chloro-benzyl)-5-(4′-methanesulfonyl-biphenyl-3-yl)-3-pentafluoroethyl-4,5-dihydro-1H-pyrazole]	17 fold	6430 nM
CS(=O)(=O)Nc1cccc(-c2ccc(C3CC(C(O)(C(F)(F)F)C(F)(F)F)=NN3c3ccccc3Cl)cc2)c1 (stereo not drawn) [Example 310, 5-(3′-methanesulfonyl-aminobiphenyl-4-yl)-1-(2-chloro-phenyl)-3-[di-(trifluoromethyl)-hydroxy-methyl]-4,5-dihydro-1H-pyrazole]	78 fold	1150 nM
O=S(=O)(N1CCCC1)N1CCN(c2ccc(C3CC(C(O)(C(F)(F)F)C(F)(F)F)=NN3c3ccccc3Cl)cc2)CC1 (stereo not drawn) [Example 319, 1-(2-chloro-phenyl)-5-{4-[4-(pyrrolidine-1-sulfonyl)-piperazin-1-yl]-phenyl}-3-[di-(trifluoromethyl)-hydroxy-methyl]-4,5-dihydro-1H-pyrazole]	39 fold	1830 nM
COc1cccc(OC)c1-c1ccc(C2CC(C(O)(C(F)(F)F)C(F)(F)F)=NN2c2ccccc2Cl)cc1 (stereo not drawn) [Example 245, 1-(2-chloro-phenyl)-5-(2′,6′-dimethoxy-biphenyl-4-yl)-3-[di-(trifluoromethyl)-hydroxy-methyl]-4,5-dihydro-1H-pyrazole]	57 fold	2430 nM
CN(C)S(=O)(=O)c1cccc(-c2cccc(N3N=C(C(F)(F)C(F)(F)F)CC3c3ccc(F)cc3F)c2)n1 (stereo not drawn) [Example 209, 5-(2,4-difluoro-phenyl)-1-[3-(6-dimethylsulfamoyl-pyridin-2-yl)-phenyl]-3-pentafluoroethyl-4,5-dihydro-1H-pyrazole]	20 fold	5110 nM
CS(=O)(=O)c1cccc(-c2cccc(N3N=C(C(F)(F)C(F)(F)F)CC3c3ccc(F)cc3F)c2)n1 (stereo not drawn) [Example 208, 5-(2,4-difluoro-phenyl)-1-[3-(6-methanesulfonyl-pyridin-2-yl)-phenyl]-3-pentafluoroethyl-4,5-dihydro-1H-pyrazole]	22 fold	6070 nM
O=S1(=O)CCN(c2ccc(C3CC(C(O)(C(F)(F)F)C(F)(F)F)=NN3c3ccccc3Cl)cc2)CC1 (stereo not drawn) [Example 329, 1-(2-chloro-phenyl)-5-[4-(1,1-dioxo-thiomorpholin-4-yl)-phenyl]-3-[di-(trifluoromethyl)-hydroxy-methyl]-4,5-dihydro-1H-pyrazole]	39 fold	2030 nM
CSc1ccc(-c2cccc(C3CC(C(F)(F)C(F)(F)F)=NN3c3ccc(Cl)cc3F)c2)cc1 (stereo not drawn) [Example 31, 1-(4-chloro-2-fluoro-phenyl)-5-(4′-methylsulfanyl-biphenyl-3-yl)-3-pentafluoroethyl-4,5-dihydro-1H-pyrazole]	28 fold	5660 nM
CS(=O)(=O)N1CCN(c2ccc(C3CC(C(O)(C(F)(F)F)C(F)(F)F)=NN3c3ccccc3Cl)cc2)CC1 (stereo not drawn) [Example 312, 1-(2-chloro-phenyl)-5-[4-(4-methanesulfonyl-piperazin-1-yl)-phenyl]-3-[di-(trifluoromethyl)-hydroxy-methyl]-4,5-dihydro-1H-pyrazole]	46 fold	2540 nM
CN(C)S(=O)(=O)N1CCCN(c2ccc(C3CC(C(O)(C(F)(F)F)C(F)(F)F)=NN3c3ccccc3Cl)cc2)CC1 (stereo not drawn) [Example 326, 1-(2-chloro-phenyl)-5-[4-(4-dimethylsulfamoyl-homopiperazin-1-yl)-phenyl]-3-[di-(trifluoromethyl)-hydroxy-methyl]-4,5-dihydro-1H-pyrazole]	51 fold	550 nM

Stronger by EC50, values ahead:

Emax	EC50	Structure (SMILES)
66 fold	304 nM	CN(C)S(=O)(=O)N1CC=C(c2ccc(C3CC(C(O)(C(F)(F)F)C(F)(F)F)=NN3c3ccccc3Cl)cc2)CC1 (stereo not drawn) [Example 305, 1-(2-chloro-phenyl)-5-{4-[1-dimethylsulfamoyl-1,2,3,6-tetrahydropyridin-4-yl]-phenyl}-3-[di-(trifluoromethyl)-hydroxy-methyl]-4,5-dihydro-1H-pyrazole]
71 fold	49 nM	O=C(Cc1ccccc1)N1CC=C(c2cccc(C3CC(C(O)(C(F)(F)F)C(F)(F)F)=NN3c3ccccc3Cl)c2)CC1 (stereo not drawn) [Example 236, 1-(2-chloro-phenyl)-5-[3-(1-phenylacetyl-1,2,3,6-tetrahydropyridin-4-yl)-phenyl]-3-[di-(trifluoromethyl)-hydroxy-methyl]-4,5-dihydro-1H-pyrazole]
26 fold	147 nM	CS(=O)(=O)c1ccc(-c2ccc(C3CC(C(O)(C(F)(F)F)C(F)(F)F)=NN3c3ccc(F)cc3F)cc2)cc1C(F)(F)F (stereo not drawn) [Example 392, 1-(2,4-difluoro-phenyl)-5-(4′-methanesulfonyl-3′-trifluoromethyl-biphenyl-4-yl)-3-[di-(trifluoromethyl)-hydroxy-methyl]-4,5-dihydro-1H-pyrazole]
29 fold	161 nM	CS(=O)(=O)c1ccc(-c2ccc(C3CC(C(O)(C(F)(F)F)C(F)(F)F)=NN3c3ccccc3Cl)cc2)cc1C#N (stereo not drawn) [Example 290, 1-(2-chloro-phenyl)-5-[3′-cyano-4′-(methylsulfonyl)-biphenyl-4-yl]-3-[di-(trifluoromethyl)-hydroxy-methyl]-4,5-dihydro-1H-pyrazole]
59 fold	312 nM	CC(C)Oc1ccccc1-c1ccc(C2CC(C(O)(C(F)(F)F)C(F)(F)F)=NN2c2ccccc2Cl)cc1F (stereo not drawn) [Example 367, 1-(2-chloro-phenyl)-5-(2-fluoro-2′-isopropoxy-biphenyl-4-yl)-3-[di-(trifluoromethyl)-hydroxy-methyl]-4,5-dihydro-1H-pyrazole]
94 fold	136 nM	CS(=O)(=O)c1ccc(-c2ccc(C3CC(C(O)(C(F)(F)F)C(F)(F)F)=NN3c3ccccc3Cl)cc2)cn1 (stereo not drawn) [Example 335, 1-(2-chloro-phenyl)-5-[4-(6-methanesulfonyl-pyridin-3-yl)-phenyl]-3-[di-(trifluoromethyl)-hydroxy-methyl]-4,5-dihydro-1H-pyrazole]
157 fold	225 nM	CS(=O)(=O)c1cccc(-c2cncc(C3CC(C(F)(F)C(F)(F)F)=NN3c3ccc(F)cc3F)c2)c1 (stereo not drawn) [Example 165, 1-(2,4-difluoro-phenyl)-5-[3-(3-methanesulfonyl-phenyl)-pyridin-5-yl]-3-pentafluoroethyl-4,5-dihydro-1H-pyrazole]
48 fold	330 nM	CS(=O)(=O)c1cccc(-c2ccc(C3CC(C(F)(F)C(F)(F)F)=NN3c3ccccc3Cl)cc2)c1 (stereo not drawn) [Example 5, 1-(2-chloro-phenyl)-5-[3′-(methylsulfonyl)-biphenyl-4-yl]-3-pentafluoroethyl-4,5-dihydro-1H-pyrazole]
